Data set [1] deals with P. falciparum CQ-sensitive strain 3D7. Nature of the data set: In vitro antiplasmodial activity, SYBR Green I fluorescence-based method, 3D7 strain. Format: cell-based, Plasmodium falciparum. As to conditions: for IC50: Plasmodium falciparum, 3D7, 48 h, read-out: P. falciparum strains IC50 values, 3D7; for Selectivity Index HepG2/3D7: ratio CC50 HepG2 / IC50 3D7. Here is the method:
(§1) The in vitro antiplasmodial activities were tested over concentrations ranging from 39 nM to 40 μM against culture-adapted Plasmodium falciparum reference strains 3D7 and W2. […] The parasites were cultivated in RPMI medium (Sigma-Aldrich, Lyon, France) supplemented with 0.5% Albumax I (Life Technologies corporation, Paisley, United Kingdom), hypoxanthine (Sigma-Aldrich), gentamicin (Sigma-Aldrich), and human erythrocytes and were incubated at 37 °C in a candle jar, as described previously. The P. falciparum drug susceptibility test was carried out in 96-well flat bottom sterile plates under a final volume of 250 μL. After a 48 h incubation with the drugs, quantities of DNA in treated and control cultures of parasites in human erythrocytes were compared according to the SYBR Green I (Sigma-Aldrich) fluorescence-based method[38]^,[39]. Briefly, after incubation, plates were frozen at -20 °C until use. They were then left to thaw for 2 h at room temperature and 100 μL of the homogenized culture were transferred to 96-well flat bottom sterile black plates (Nunc Inc) already containing 100 μL of the SYBR Green I lysis buffer (2xSYBR Green, 20 mM Tris base pH 7.5, 5 mM EDTA, 0.008% w/v saponin, 0.08% w/v Triton X-100). […] Plates were incubated for 1 h at room temperature and then read on a fluorescence plate reader (Tecan, Austria) using excitation and emission wavelengths of 485 and 535 nm, respectively.

For data set [2], the system named is human telomeric quadruplex F21T. Nature of the data set: FRET melting experiments, F21T. Format: binding. As to conditions: compound at 5 μM, 200 nM oligonucleotide, K+ condition; result in words. Here is the method:
(§2) FRET melting experiments were performed with dual-labeled oligonucleotides mimicking the Plasmodium telomeric sequences FPf1T [FAM-^5′(GGGTTTA)3-GGG^3′-TAMRA] and FPf8T [FAM-^5′(GGGTTCA)3GGG^3′-TAMRA] and the human telomeric sequence F21T [FAM-(GGGTTA)3-GGG^3′- TAMRA][36]^,[43]. The oligonucleotides were prefolded in 10 mM lithium cacodylate buffer (pH 7.2), with 10 mM KCl and 90 mM LiCl (K^+ condition). […] The data obtained were normalized between 0 and 1, and the temperature required for half-denaturationof oligonucleotides corresponded to the emission value of 0.5 was calculated as ΔTm. Each experiment was performed in duplicate with 200 nM of labeled oligonucleotide and 0, 1, 2, or 5 μM of compound under K^+ condition. For each compound, two independent experiments were carried out. The data were plotted using OriginPro 9.1 software (OriginLab Corporation, Northampton, MA).

The test system of data set [3] is P. falciparum CQ-resistant strain W2. Nature of the data set: In vitro antiplasmodial activity, SYBR Green I fluorescence-based method, W2 strain. Format: cell-based, Plasmodium falciparum. The conditions noted are these: for IC50: Plasmodium falciparum, read-out: P. falciparum strains IC50 values, W2; for Selectivity Index HepG2/W2: ratio CC50 HepG2 / IC50 W2. On the procedure: as §1

Data set [4] deals with Plasmodium telomeric quadruplex FPf8T. Nature of the data set: FRET melting experiments, FPf8T. Format: binding, Plasmodium falciparum. As to conditions: compound at 5 μM, 200 nM oligonucleotide, K+ condition; result in words. On the procedure: as §2
The test system of data set [5] is Plasmodium telomeric quadruplex FPf1T. Nature of the data set: FRET melting experiments, FPf1T. Format: binding, Plasmodium falciparum. The conditions noted are these: compound at 5 μM, 200 nM oligonucleotide, K+ condition; result in words. On the procedure: as §2
The nature of data set [6]: Cytotoxicity evaluation, MTT assay. Format: cell-based, human. The conditions noted are these: human, HepG2 cells (hepatocarcinoma cell line, ATCC HB-8065); HepG2, 72 h incubation, mean ± SD of three independent experiments. Here is the method: (§3) These assays were performed toward the human HepG2 cell line (HepG2 CC50). […] These cells express many of the hepatocyte-specific metabolic enzymes, thus enabling the cytotoxicity of tested product metabolites to be evaluated. […] Duplicate assays were performed for each sample. Each plate-well was then microscope-examined for detecting possible precipitate formation before the medium was aspirated from the wells. 100 μL of MTT solution (0.5 mg/mL in medium without FCS) were then added to each well. […] After this time, the MTT solution was removed and DMSO (100 μL) was added to dissolve the resulting blue formazan crystals. Plates were shaken vigorously (300 rpm) for 5 minutes. The absorbance was measured at 570 nm with 630 nm as reference wavelength spectrophotometer using a BIO-TEK ELx808 Absorbance Microplate Reader. DMSO was used as blank and doxorubicin (Sigma Aldrich) as positive control. Cell viability was calculated as percentage of control (cells incubated without compound). The 50% cytotoxic concentration was determined from the dose-response curve by using the TableCurve 2D V5.0 software (Systat Software, San Jose, CA).

The test system of data set [7] is L. donovani (MHOM/IN/00/DEVI) promastigotes. Description: In vitro antileishmanial activity on promastigotes, MTT assay. Format: cell-based. The conditions noted are these: Leishmania donovani, 72 h incubation, mean ± SD of three independent experiments. Here is the method: L. donovani (MHOM/IN/00/DEVI) used in this study was provided by the CNR Leishmania (Montpellier, France). The effects of the tested compounds on the growth of L. donovani (MHOM/IN/00/DEVI)promastigotes were assessed by MTT assay[41] .Briefly, promastigotes in log-phase in Schneider′s medium supplemented with 20% fetal calf serum (FCS), 2 mM L-glutamine and antibiotics (100 U/mL penicillin and 100 μg/mL streptomycin), were incubated at an average density of 10^6 parasites/mL in sterile 96-well plates with various concentrations of compounds dissolved in DMSO (final concentration less than 0.5% v/v), in duplicate. Appropriate controls treated by DMSO and pentamidine or amphotericin B (reference drugs purchased from Sigma-Aldrich) were added to each set of experiments. After a 72 h incubation period at 27 °C, parasite metabolic activity was determined. Each plate-well was then microscope-examined for detecting possible precipitate formation. 20 μL of MTT 3–(4,5-dimethylthiazol-2-yl)-2,5-diphenyltetrazolium bromide) solution (5 mg/mL) were added to each well followed by incubation for another 4 h. The enzyme reaction was then stopped by addition of 100 μL of 50% isopropanol – 10% sodium dodecyl sulfate[42] .Plates were shaken vigorously (300 rpm) for 10 minutes and the absorbance measured in a plate reader at 570 nm in a BIO-TEK ELx808 Absorbance Microplate Reader. […] IC50 were calculated by non-linear regression analysis processed on doseresponse curves, using TableCurve 2D V5.0 software. IC50 values represent the mean value calculated from three independent experiments.
In general terms: Formazan colour is commonly taken as a measure of viable cells.

Data set [8] deals with HepG2 cell line. Description: Cytotoxicity evaluation, MTT assay. Format: cell-based, human. The conditions noted are these: HepG2, 72 h incubation, mean ± SD of three independent experiments. Here is the method: as §3
Where [9] appears, read: chloroquine-sensitive strain 3D7, 48 h incubation.
Where [10] appears, read: chloroquine-resistant strain W2, 48 h incubation.

Five compounds from article PMC6445168, “Design, synthesis and antimalarial activity of novel bis{N-[(pyrrolo[1,2-a]quinoxalin-4-yl)benzyl]-3-aminopropyl}amine derivatives” (Journal of Enzyme Inhibition and Medicinal Chemistry, 2017) can be followed below.

Each structure is given as a SMILES string. Where two headings read alike, the source gives them in different places.

Consider `OC(c1cc(C(F)(F)F)nc2c(C(F)(F)F)cccc12)C1CCCCN1` (stereo not shown) [Mefloquine, reference compound], for which the IC50 in data set [1] (setting [9]) was found to be 80 ± 8 nM; in data set [3] (setting [10]) it was 32 ± 1 nM. Moreover, the “Thermal stabilization (ΔTm) on F21T” value in data set [2] is reported as “very slight stabilization”. Besides, the “Thermal stabilization (ΔTm) on FPf8T” value in data set [4] is on record as “very slight stabilization”. Moreover, in data set [5], the “Thermal stabilization (ΔTm) on FPf1T” value is on record as “very slight stabilization”.

The compound `COc1cccc2nc(-c3ccc(CNCCCN4CCN(CCCNCc5ccc(-c6nc7cccc(OC)c7n7cccc67)cc5)CC4)cc3)c3cccn3c12` [1i, Bis{N-[4–(9-methoxypyrrolo[1,2-a]quinoxalin-4-yl)benzyl]-3-aminopropyl}piperazine] returned a CC50 at 72 h in data set [6] of 1330 ± 300 nM. The IC50 in data set [1] (setting [9]) was found to be 1280 ± 100 nM; in data set [7], 1580 ± 100 nM; in data set [3] (setting [10]) it was 320 ± 40 nM. Further, in data set [1], the “Selectivity Index HepG2/3D7” value came out at 1.04. Also, in data set [3], the “Selectivity Index HepG2/W2” value was 4.16. The “Thermal stabilization (ΔTm) on FPf8T” value in data set [4] is “more active on the Plasmodium sequences with the higher ΔTm”. For the same compound, the “Thermal stabilization (ΔTm) on FPf1T” value in data set [5] was “more active on the Plasmodium sequences with the higher ΔTm”.

`COc1ccc2c(c1)nc(-c1ccc(CNCCCN3CCN(CCCNCc4ccc(-c5nc6cc(OC)ccc6n6cccc56)cc4)CC3)cc1)c1cccn12` [1e, Bis{N-[4–(7-methoxypyrrolo[1,2-a]quinoxalin-4-yl)benzyl]-3-aminopropyl}piperazine] gave a CC50 at 72 h in data set [6] of 1460 ± 600 nM. Besides, the IC50 in data set [1] (setting [9]) came out at 2620 ± 250 nM; in data set [7], 2520 ± 100 nM; in data set [3] (setting [10]) it was 210 ± 30 nM. The “Selectivity Index HepG2/3D7” value in data set [1] is on record as 0.56. Further, the “Selectivity Index HepG2/W2” value in data set [3] is on record as 6.95. For the same compound, the “Thermal stabilization (ΔTm) on FPf8T” value in data set [4] is “more active on the Plasmodium sequences with the higher ΔTm”. For the same compound, the “Thermal stabilization (ΔTm) on FPf1T” value in data set [5] is listed as “more active on the Plasmodium sequences with the higher ΔTm”.

Consider `N=C(N)c1ccc(OCCCCCOc2ccc(C(=N)N)cc2)cc1` [Pentamidine, reference compound], for which it took 2300 ± 500 nM to reach half-maximal cytotoxicity in data set [8] (CC50). This compound also displayed an IC50 in data set [7] of 5500 ± 800 nM.

As for `CCN(CC)CCCC(C)Nc1ccnc2cc(Cl)ccc12` (stereo not shown) [Chloroquine, reference compound], the IC50 in data set [1] came out at 80 ± 3 nM; in data set [3] (W2, 48 h), 200 ± 30 nM. The “Thermal stabilization (ΔTm) on F21T” value in data set [2] is listed as “very slight stabilization”. Further, the “Thermal stabilization (ΔTm) on FPf8T” value in data set [4] is recorded as “very slight stabilization”. The “Thermal stabilization (ΔTm) on FPf1T” value in data set [5] is given as “very slight stabilization”.

What is called IC50 is the point on the concentration scale where inhibition reaches its midpoint. Usually CC50 stands for the concentration at which the toxic effect on the cells reaches its halfway point. A higher CC50 goes with better tolerance by the cells.
